Experimental data from patent US20250115598A1 (Anaxis Pharma Pty Ltd, priority 2021, published 2025).

What was measured:
endogenous MLKL in MDF = endogenous MLKL in MDF (Mus musculus (Mouse), UniProt Q9D2Y4); test: Degradation assay: endogenous MLKL in MDF (western blot); settings: MDF cells, 24 h incubation with compound, MLKL adjusted for loading with GAPDH, normalized to DMSO only control, read-out: Degradation of endogenous MLKL in MDF (DC50 cell-based assay)
Protocol: Degradation Assay: Screening Compounds Procedure to Evaluate the Activity of Compounds in Degrading Endogenous MLKL in Human and Mouse Cell
The mouse dermal fibroblast (MDF) cell line was seeded the day before the experiment in a 24-well plate at a cell density of […] per well in a volume of 0.5 mL per well and left to attach overnight. The human monocyte cell line (U937) was seeded on the day of the experiment in a 24-well plate at a cell density of […] per well in a volume of 0.5 mL per well.
The compound was diluted in DMSO with a starting concentration of 10 mM and titrated stepwise with a dilution of 1:5. 0.5 μL of the compound dilution was added to the appropriate well to achieve a final concentration of 10; 2; 0.4; 0.08 and 0.016 μM. A DMSO only well was included as control.
The cells were incubated for 24 h in the presence of the compound at 37° C. and 10% CO2.
After the 24 h incubation period, the medium was removed and cells washed with 0.5 mL PBS. The cells were then lysed directly in 60 μL of 1×SDS gel loading buffer.
The cell lysate was heat-denatured at […] for 10 min. 10 μL of lysate per well were run on 18-well 4-15% Criterion TGX stain free gels (BIO-RAD). The proteins were then transferred onto nitrocellulose membrane with a wet transfer protocol in the Criterion Blotter (BIO-RAD).
Membranes were blocked with 5% skim milk in TBST. Primary antibody against MLKL (clone 3H1, MABC604 Merck) was used at 1:2000 dilution in TBST with 1% BSA and left shaking over night at 4° C. After washes with TBST, the membranes were incubated with goat anti-rat IgG HRP-conjugated antibody (Southern Biotech) in 1% skim milk TBST at 1:10000 dilution for 1 h at room temperature. After TBST washes the bands were imaged on the ChemiDoc MP Imaging System (BIO-RAD) with Immobilion Western Chemiluminescent HRP Substrate Forte (Millipore). The loading control GAPDH was probed for with rabbit anti-GAPDH (CST 14C10) at 1:2000 dilution in 1% BSA TBST over night at 4° C. TBST washes were followed by incubation with goat anti-rabbit IgG HRP-conjugated antibody (Southern Biotech) in 1% skim milk TBST at 1:10000 dilution for 1 h at room temperature followed by TBST washes. The signal was detected as described above.
The band intensity was measured in the ImageLab Software (BIO-RAD) and the MLKL values adjusted for loading with GAPDH. The percentage of degradation was calculated by normalizing the compound treated values to the DMSO only control.

[1] = system: Immortalised Mouse Dermal Fibroblasts (MDFs); test: Cellular assay: inhibition of TSI induced necroptosis, CellTitre-Glo viability; settings: Mus musculus, Fibroblast; MDF, 3 hours TSI cocktail, Table 27; read-out: Inhibition of TSI-induced necroptosis (IC50 cell-based assay) in MDF
How it was run: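 Immortalised mouse dermal fibroblasts (2200 cells/well) pretreated 30 min with compound, 10-point 1:3 series from 36 μM, 0.3% DMSO. Then 3 h at 37° C. with TNF (100 ng/ml), Smac mimetic (500 nM) and IDN-6556 (10 μM). CellTiter-Glo luminescence normalised to DMSO (100%) and DMSO+TSI (0%); IC50 from 4-parameter logistic fit.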

human MLKL (full length) = human MLKL (full length) (Homo sapiens (Human), UniProt Q8NB16); test: KINOMEscan binding assay, human MLKL (full length); settings: hMLKL, Table 25; read-out: MLKL (KD)
Chain of human MLKL (full length) (Q8NB16 whole entry): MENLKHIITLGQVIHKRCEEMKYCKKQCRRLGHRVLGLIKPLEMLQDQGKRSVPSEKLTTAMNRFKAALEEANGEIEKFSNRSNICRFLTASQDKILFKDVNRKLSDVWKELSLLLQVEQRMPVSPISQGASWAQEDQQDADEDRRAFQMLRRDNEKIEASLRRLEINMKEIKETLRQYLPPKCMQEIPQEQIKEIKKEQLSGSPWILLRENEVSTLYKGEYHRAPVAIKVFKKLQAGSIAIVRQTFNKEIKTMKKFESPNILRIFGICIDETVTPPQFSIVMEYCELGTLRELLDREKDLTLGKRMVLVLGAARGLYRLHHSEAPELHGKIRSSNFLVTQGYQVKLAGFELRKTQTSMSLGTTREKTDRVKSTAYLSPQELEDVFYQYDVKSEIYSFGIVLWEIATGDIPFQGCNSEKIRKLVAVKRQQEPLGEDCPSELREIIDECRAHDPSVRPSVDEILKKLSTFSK
How it was run: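 Tagged kinase + immobilized ligand beads + compound; eluted kinase quantified by qPCR. Kinase source: T7 phage lysate (BL21-derived E. coli, 32 °C) or HEK-293 with DNA tag. 11-pt 3-fold series, 1% DMSO, top 30,000 nM (most). Hill fit, slope −1 → Kd.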

Chain of endogenous MLKL in MDF (Q9D2Y4 whole entry): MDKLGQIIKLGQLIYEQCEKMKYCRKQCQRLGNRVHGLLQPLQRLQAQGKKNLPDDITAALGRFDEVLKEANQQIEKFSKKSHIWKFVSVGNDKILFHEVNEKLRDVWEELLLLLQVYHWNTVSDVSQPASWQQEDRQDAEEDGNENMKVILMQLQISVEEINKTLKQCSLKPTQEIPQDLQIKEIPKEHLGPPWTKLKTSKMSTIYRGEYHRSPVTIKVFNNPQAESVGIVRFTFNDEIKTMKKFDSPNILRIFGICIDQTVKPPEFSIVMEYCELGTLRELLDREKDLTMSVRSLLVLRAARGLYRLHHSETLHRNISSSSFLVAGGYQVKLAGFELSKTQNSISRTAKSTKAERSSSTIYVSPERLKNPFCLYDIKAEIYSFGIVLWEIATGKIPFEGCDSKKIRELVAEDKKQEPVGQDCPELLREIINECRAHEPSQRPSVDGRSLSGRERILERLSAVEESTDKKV

DC50 (endogenous MLKL in MDF)	Kd (human MLKL (full length))	Structure (SMILES)	IC50 [1]
< 1000 nM	< 10 nM	C[C@H](Oc1cc(-c2nn(C)c3c(-c4cnn(C5CCN(C(=O)[C@H]6CC[C@@H](Nc7cccc8c7C(=O)N(C7CCC(=O)NC7=O)C8=O)CC6)CC5)c4)cnc(N)c23)ccc1NS(=O)(=O)C(F)F)c1ccc(F)cc1 (some centres unmarked) [Compound 1071]	< 1000 nM
< 1000 nM	< 10 nM	C[C@H](Oc1cc(-c2nn(C)c3c(-c4cnn(C5CCN(C(=O)N6CCN(c7cccc8c7C(=O)N(C7CCC(=O)NC7=O)C8=O)CC6)CC5)c4)cnc(N)c23)ccc1NS(=O)(=O)C(F)F)c1ccc(F)cc1 (stereo partly drawn) [Compound 1103, N-(4-{4-amino-7-[1-(1-{4-[2-(2,6-dioxopiperidin-3-yl)-1,3-dioxo-2,3-dihydro-1H-isoindol-4-yl]piperazine-1-carbonyl}piperidin-4-yl)-1H-pyrazol-4-yl]-1-methyl-1H-pyrazolo[4,3-c]pyridin-3-yl}-2-[(1S)-1-(4-fluorophenyl)ethoxy]phenyl)-1,1-difluoromethanesulfonamide]	< 1000 nM
< 1000 nM	< 10 nM	C[C@H](Oc1cc(-c2nn(C)c3c(-c4cnn(C5CCN(C(=O)[C@H]6C[C@H](Nc7ccc8c(c7)C(=O)N(C7CCC(=O)NC7=O)C8=O)C6)CC5)c4)cnc(N)c23)ccc1NS(=O)(=O)C(F)F)c1ccc(F)cc1 (stereo partly drawn) [Compound 1094, N-{4-[4-amino-1-methyl-7-(1-{1-[(trans)-3-{[2-(2,6-dioxopiperidin-3-yl)-1,3-dioxo-2,3-dihydro-1H-isoindol-5-yl]amino}cyclobutanecarbonyl]piperidin-4-yl}-1H-pyrazol-4-yl)-1H-pyrazolo[4,3-c]pyridin-3-yl]-2-[(1S)-1-(4-fluorophenyl)ethoxy]phenyl}-1,1-difluoromethanesulfonamide]	< 1000 nM
< 1000 nM	10 to 1000 nM	C[C@H](Oc1cc(-c2nn(C)c3c(-c4cnn(C5CCC(C(=O)N6CC(Nc7cccc8c7C(=O)N(C7CCC(=O)NC7=O)C8=O)C6)CC5)c4)cnc(N)c23)ccc1NS(=O)(=O)C(F)F)c1ccc(F)cc1 (stereo partly drawn) [Compound 1133, N-[4-(4-amino-7-{1-[4-(3-{[2-(2,6-dioxopiperidin-3-yl)-1,3-dioxo-2,3-dihydro-1H-isoindol-4-yl]amino}azetidine-1-carbonyl)cyclohexyl]-1H-pyrazol-4-yl}-1-methyl-1H-pyrazolo[4,3-c]pyridin-3-yl}-2-[(1S)-1-(4-fluorophenyl)ethoxy]phenyl]-1,1-difluoromethanesulfonamide]	1000 to 10000 nM
1000 to 10000 nM	10 to 1000 nM	Cc1ncsc1-c1ccc(CNC(=O)[C@@H]2C[C@@H](O)CN2C(=O)[C@@H](NC(=O)c2cccc(OCCn3cc(-c4cnc(N)c5c(-c6ccc(NS(=O)(=O)C(F)F)c(O[C@@H](C)c7ccc(F)cc7)c6)nn(C)c45)cn3)c2)C(C)(C)C)cc1 [Compound 1039, (2S,4R)-1-[(2S)-2-({3-[2-(4-{4-amino-3-[4-(difluoromethanesulfonamido)-3-[(1S)-1-(4-fluorophenyl)ethoxy]phenyl]-1-methyl-1H-pyrazolo[4,3-c]pyridin-7-yl}-1H-pyrazol-1-yl)ethoxy]phenyl}formamido)-3,3-dimethylbutanoyl]-4-hydroxy-N-{[4-(4-methyl-1,3-thiazol-5-yl)phenyl]methyl}pyrrolidine-2-carboxamide]	–
< 1000 nM	< 10 nM	C[C@H](Oc1cc(-c2nn(C)c3c(-c4cnn(C5CCN(C(=O)[C@H]6C[C@H](N(C)c7ccc8c(c7)C(=O)N(C7CCC(=O)NC7=O)C8=O)C6)CC5)c4)cnc(N)c23)ccc1NS(=O)(=O)C(F)F)c1ccc(F)cc1 (stereo partly drawn) [Compound 1106, N-{4-[4-amino-1-methyl-7-(1-{1-[(trans)-3-{[2-(2,6-dioxopiperidin-3-yl)-1,3-dioxo-2,3-dihydro-1H-isoindol-5-yl](methyl)amino}cyclobutanecarbonyl]piperidin-4-yl}-1H-pyrazol-4-yl)-1H-pyrazolo[4,3-c]pyridin-3-yl]-2-[(1S)-1-(4-fluorophenyl)ethoxy]phenyl}-1,1-difluoromethanesulfonamide]	< 1000 nM
< 1000 nM	< 10 nM	C[C@H](Oc1cc(-c2nn(C)c3c(-c4cnn(C5CCN(C(=O)[C@]6(F)C[C@H](Nc7cccc8c7C(=O)N(C7CCC(=O)NC7=O)C8=O)C6)CC5)c4)cnc(N)c23)ccc1NS(=O)(=O)C(F)F)c1ccc(F)cc1 (stereo partly drawn) [Compound 1110, N-{4-[4-amino-1-methyl-7-(1-{1-[(trans)-3-{[2-(2,6-dioxopiperidin-3-yl)-1,3-dioxo-2,3-dihydro-1H-isoindol-4-yl]amino}-1-fluoro-cyclobutanecarbonyl]piperidin-4-yl}-1H-pyrazol-4-yl)-1H-pyrazolo[4,3-c]pyridin-3-yl]-2-[(1S)-1-(4-fluorophenyl)ethoxy]phenyl}-1,1-difluoromethanesulfonamide]	< 1000 nM
1000 to 10000 nM	< 10 nM	Cn1nc(-c2ccc(NS(=O)(=O)C(F)F)c(F)c2)c2c(N)ncc(-c3cnn(CCCCCCCOc4cccc5c4C(=O)N(C4CCC(=O)NC4=O)C5=O)c3)c21 (centres unmarked) [Compound 1060, N-(4-{4-amino-7-[1-(7-{[2-(2,6-dioxopiperidin-3-yl)-1,3-dioxo-2,3-dihydro-1H-isoindol-4-yl]oxy}heptyl)-1H-pyrazol-4-yl]-1-methyl-1H-pyrazolo[4,3-c]pyridin-3-yl}-2-fluorophenyl)-1,1-difluoromethanesulfonamide]	–
< 1000 nM	10 to 1000 nM	C[C@H](Oc1cc(-c2nn(C)c3c(-c4cnn(C5CCN(C(=O)CCC6CCN(c7cccc8c7C(=O)N(C7CCC(=O)NC7=O)C8=O)CC6)CC5)c4)cnc(N)c23)ccc1NS(=O)(=O)C(F)F)c1ccc(F)cc1 (stereo partly drawn) [Compound 1043, N-[4-(4-amino-7-{1-[1-(3-{1-[2-(2,6-dioxopiperidin-3-yl)-1,3-dioxo-2,3-dihydro-1H-isoindol-4-yl]piperidin-4-yl}propanoyl)piperidin-4-yl]-1H-pyrazol-4-yl}-1-methyl-1H-pyrazolo[4,3-c]pyridin-3-yl)-2-[(1S)-1-(4-fluorophenyl)ethoxy]phenyl]-1,1-difluoromethanesulfonamide]	< 1000 nM
< 1000 nM	–	C[C@H](Oc1cc(-c2nn(C)c3c(-c4cnn(C5CCN(CCn6cc(CCNc7cccc8c7C(=O)N(C7CCC(=O)NC7=O)C8=O)nn6)CC5)c4)cnc(N)c23)ccc1NS(=O)(=O)C(F)F)c1ccc(F)cc1 (some centres unmarked) [Compound 1128, N-(4-{4-amino-7-[1-(1-{2-[4-(2-{[2-(2,6-dioxopiperidin-3-yl)-1,3-dioxo-2,3-dihydro-1H-isoindol-4-yl]amino}ethyl)-1H-1,2,3-triazol-1-yl]ethyl}piperidin-4-yl)-1H-pyrazol-4-yl]-1-methyl-1H-pyrazolo[4,3-c]pyridin-3-yl}-2-[(1 S)-1-(4-fluorophenyl)ethoxy]phenyl)-1,1-difluoromethanesulfonamide]	< 1000 nM
< 1000 nM	–	C[C@H](Oc1cc(-c2nn(C)c3c(-c4cnn(C5CCN(C(=O)Cc6cccc7c6C(=O)N(C6CCC(=O)NC6=O)C7=O)CC5)c4)cnc(N)c23)ccc1NS(=O)(=O)C(F)F)c1ccc(F)cc1 (stereo partly drawn) [Compound 1137, N-(4-{4-amino-7-[1-(1-{2-[2-(2,6-dioxopiperidin-3-yl)-1,3-dioxo-2,3-dihydro-1H-isoindol-4-yl]acetyl}piperidin-4-yl)-1H-pyrazol-4-yl]-1-methyl-1H-pyrazolo[4,3-c]pyridin-3-yl}-2-[(1S)-1-(fluorophenyl)ethoxy]phenyl)-1,1-difluoromethanesulfonamide]	1000 to 10000 nM
